Laboratory results published in patent US12589087B2, “Enantiomer selective action on neurotransmission” (The Board of Trustees of the Leland Stanford Junior …, priority 2021, dated 2026).

Columns and labels:
C57Bl/6 mice = experiment: Chronic dosing behavioral tests (activity chamber, elevated plus maze, Y maze, Morris water maze, fear conditioning); format: in vivo, mouse; details: for body weight, activity chamber distance, elevated plus maze open arm time, Y maze alternation, Morris water maze learning / mortality: 10 mg/kg/day IP for a month; for fear conditioning, contextual recall on Day 2: 10 mg/kg/day IP, week 4
Method: Dosing: (R)-2MeGlu (10 mg/kg), (S)-2MeGlu (10 mg/kg), rac-2MeGln (10 mg/kg), and vehicle (PBS) were administered IP at 10 ml/kg dosing volume daily. The first dose was administered one week prior to behavioral tests and continued for four weeks during the behavioral testing.
Activity Chamber Open Field: The assessment took place in an Open Field Activity Arena as described above for 30 min. The Arena was cleaned with a 1% Virkon solution at the end of the trial. Activity chamber open field assessment was conducted after one week of exposure to compounds or vehicle.
Elevated Plus Maze: The maze was made of acrylonitrile butadiene styrene (ABS) plastic and had two open arms and two close arms that were 30 cm long and 5 cm wide. The center area where the open and close arms meet was 5 cm×5 cm. The open arms had 2 mm lips at the edges, and the closed arms had 15 cm opaque walls. The maze was elevated 50 cm and surrounded by privacy blinds during the test. The maze was illuminated to 7 lux using red light throughout the test. Each mouse was released in the center of the maze and given 5 min to explore the maze. Duration and frequency in each zone of the maze were recorded using Ethovision (Noldus Information Technology, Wageningen, the Netherlands) tracking software. The maze was cleaned with a 1% Virkon solution at the end of the trial. Elevated plus maze was conducted after one week of exposure to compounds or vehicle.
Y Maze Spontaneous Alternation: The Y maze is made of plastic with 3 arms in a “Y” shape. The arms are labelled as Arm A, B, and C; Arm A is 20.32 cm (L)×5 cm (W) 12.7 cm (H), Arm B and C are 15.24 cm (L)×5 cm (W), and 12.7 cm (H). The test is based on the willingness of rodents to explore a novel environment and designed to measure spontaneous alternations in rodents. Each mouse was placed in the center of the maze facing Arm B. The first entry was excluded from data analysis because the animals were led to the initial arm entry by the experimenter. Using an overhead camera, the number of arm entries and alternations were recorded for 5 minutes. An arm entry is when all four paws enter into a new arm of the maze. The apparatus was cleaned with 1% Virkon. Parameters recorded were % alternation and the total number of entries into arms. The Y maze test was conducted after two weeks of exposure to compounds or vehicle.
Morris Water Maze: During the Hidden Platform Training (HPT), mice were given 2 trials, with 1-minute inter-trial-intervals (ITIs) in a circular water tank (172 cm diameter) filled with opaque water at 22.0±1.5° C. Nontoxic tempera paint was used to make the water opaque. A circular platform (17 cm diameter) was submerged 1 cm below the water's surface and placed in one of the four quadrants of the pool (Quadrant 2). The release locations into the pool were randomly chosen to prevent spatial bias and the platform was also relocated during reversal training. We conducted 3 days of training with 2 trials each day for a total of the 6 trials prior to probe 1 (Days 1 to 3). Specifically, mice were given a maximum of 60 s to find the submerged platform per trial. […] After remaining on the platform for 15 s, mice were removed from the platform and placed in a dry cage with a paper towel. This process was repeated for 3 days. On the following day (˜24 hours after the last training trial), the platform was removed from the pool, and a 60 s probe trial was conducted. After acquiring the data for the probe trial, the platform was replaced at the same location, and the mice were given additional two trials of training. Three days (˜72 hours) after the last training trial, a second probe trial was conducted. The platform was relocated to a new quadrant (Quadrant 4) after the second probe trial, and the animals were trained in Reversal Hidden Platform Training (RHPT). The procedures for RHPT were identical to HPT and were conducted for 3 days (Days 7 to 9). A third probe trial was conducted on the following day (˜24 hr). […]

NMDA nonspecific = experiment: radioligand binding assay, cerebral cortex membranes, [3H]CGP 39653; details: NMDA nonspec, rat; 100 μM
Method: (§1) Nonspecific AMPA, kainate and NMDA binding assays were performed by Eurofins Discovery (Cerep) using rat cerebral cortex membranes and radiolabeled [^3H]AMPA, [^3H]kainic acid and [^3H]CGP 39653, respectively. All compounds were tested at a single concentration of 100 uM in triplicate. mGluR1, mGluR2, mGluR5 and GABAB binding assays were performed by Eurofins Discovery. mGluR1 assay was performed using rat cerebellum membranes and radiolabeled [^3H]quisqalic acid. mGluR2 assay was performed using recombinant Chem-1 cells and [^3H]LY341495. mGluR5 and GABAB binding assays were performed using recombinant CHO-K1 cells and […], respectively. All compounds were tested at a single concentration of 100 uM in triplicate.
All receptor assays were performed exactly as described in Example 1. Functional assays of all GABAA, NMDA (GluN2A-GluN2D) and AMPA (GluA2) receptor subunits were performed by SB Drug Discovery as a part of their CNS discovery panel using FLIPR technology. All compounds were tested at 7 concentrations in triplicate and EC50/IC50 was determined where applicable. Functional GABAB assay was performed by Eurofins Discovery (Cerep) using Ca^2+-dependent fluorimetry in RBL cells expressing human GABAB (B1/B2) receptor. All compounds were tested at a single concentration of 100 uM in triplicate. […]

GABAB nonsel = experiment: radioligand binding inhibition assay; details: rat, 100 μM
Method: as §1

SMILES | body weight, activity chamber distance, elevated plus maze open arm time, Y maze alternation, Morris water maze learning (C57Bl/6 mice) | mortality (C57Bl/6 mice) | fear conditioning, contextual recall on Day 2 (C57Bl/6 mice) | % of radioligand binding inhibition (NMDA nonspecific) [%] | % of radioligand binding inhibition (GABAB nonsel) [%]
CC(N)(CCC(N)=O)C(=O)O (racemic) [rac-2MeGln, rac-2-methylglutamine] | no significant effect of treatment | no mortality | no significant effect of treatments | – | –
C[C@](N)(CCC(=O)O)C(=O)O [(S)-2MeGlu, (S)-2-methylglutamic acid] | no significant effect of treatment | no mortality | no significant effect of treatments | 3 | 5
C[C@@](N)(CCC(=O)O)C(=O)O [(R)-2MeGlu, (R)-2-methylglutamic acid] | no significant effect of treatment | no mortality | no significant effect of treatments | 8 | 5
